Tested on: tobacco budworm (Heliothis virescens [Fabricius])
Assay: surface-treated diet test against the tobacco budworm
Assay type: in vivo
Conditions: tobacco budworm second instar larvae, 0.25 millimoles of candidate insecticide on the surface of the diet, five-day exposure; for Percent Mortality: compared to total number of insects infested; for Percent Growth Inhibition: inhibition of insect weight relative to untreated controls
In short: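 Wheat germ artificial diet surface-treated with 40 µL of 50 mM DMSO stock diluted 1:7 in 1:1 water/acetone (0.25 millimolar on diet), or sub-multiples for rate tests. One second-instar larva per well, 25° C, 60% RH, 5 days; percent weight inhibition vs DMSO controls and percent mortality.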

Compound | Percent Mortality [%] | Percent Growth Inhibition [%]
CNC(=O)Oc1ccc(C[N+]2([O-])CCC(=C(c3ccc(C(F)(F)F)cc3)c3ccc(C(F)(F)F)cc3)CC2)cc1 (stereo not drawn) [Compound 828] | 100 | 100
CNC(=O)Oc1ccc(C[N+]2([O-])CCC(=C(c3ccc(OC(F)(F)F)cc3)c3ccc(OC(F)(F)F)cc3)CC2)cc1 (stereo not drawn) [Compound 829] | 100 | 100
CC(C)NC(=O)Oc1ccc(C[N+]2([O-])CCC(=C(c3ccc(C(F)(F)F)cc3)c3ccc(C(F)(F)F)cc3)CC2)cc1 (stereo not drawn) [Compound 830] | 100 | 100
CC(C)OC(=O)Nc1ccc(C[N+]2([O-])CCC(=C(c3ccc(Cl)cc3)c3ccc(Cl)cc3)CC2)cc1 (stereo not drawn) [Compound 831] | 100 | 100
CC(C)OC(=O)Nc1ccc(C[N+]2([O-])CCC(=C(c3ccc(F)cc3)c3ccc(F)cc3)CC2)cc1 (stereo not drawn) [Compound 832] | 83 | 100
CC(C)OC(=O)Nc1ccc(C[N+]2([O-])CCC(=C(c3ccc(Cl)c(Cl)c3)c3ccc(Cl)c(Cl)c3)CC2)cc1 (stereo not drawn) [Compound 833] | 100 | 100
CC(C)OC(=O)Nc1ccc(C[N+]2([O-])CCC(=C(c3ccc(Cl)c(F)c3)c3ccc(Cl)c(F)c3)CC2)cc1 (stereo not drawn) [Compound 834] | 100 | 100
COc1ccc(C(=C2CC[N+]([O-])(Cc3ccc(NC(=O)OC(C)C)cc3)CC2)c2ccc(OC)cc2)cc1 (stereo not drawn) [Compound 835] | 0 | 80
C=CCOC(=O)Nc1ccc(C[N+]2([O-])CCC(=C(c3ccc(C(F)(F)F)cc3)c3ccc(C(F)(F)F)cc3)CC2)cc1 (stereo not drawn) [Compound 836] | 100 | 100
CC=CCOC(=O)Nc1ccc(C[N+]2([O-])CCC(=C(c3ccc(C(F)(F)F)cc3)c3ccc(C(F)(F)F)cc3)CC2)cc1 (stereo not drawn) [Compound 837] | 100 | 100
C#CCOC(=O)Nc1ccc(C[N+]2([O-])CCC(=C(c3ccc(C(F)(F)F)cc3)c3ccc(C(F)(F)F)cc3)CC2)cc1 (stereo not drawn) [Compound 838] | 100 | 100
[O-][N+]1(Cc2ccc(Oc3ccccc3F)cc2)CCC(=C(c2ccc(C(F)(F)F)cc2)c2ccc(C(F)(F)F)cc2)CC1 (stereo not drawn) [Compound 839] | 100 | 100
[O-][N+]1(Cc2ccc(-c3ccccn3)cc2)CCC(=C(c2ccc(C(F)(F)F)cc2)c2ccc(C(F)(F)F)cc2)CC1 (stereo not drawn) [Compound 840] | 100 | 100
[O-][N+]1(Cc2ccc(Oc3ccccn3)cc2)CCC(=C(c2ccc(Cl)cc2)c2ccc(Cl)cc2)CC1 (stereo not drawn) [Compound 841] | 100 | 100
[O-][N+]1(Cc2ccc(Oc3ccccn3)cc2)CCC(=C(c2ccc(F)cc2)c2ccc(F)cc2)CC1 (stereo not drawn) [Compound 842] | 100 | 100
[O-][N+]1(Cc2ccc(Nc3ccccn3)cc2)CCC(=C(c2ccc(C(F)(F)F)cc2)c2ccc(C(F)(F)F)cc2)CC1 (stereo not drawn) [Compound 843] | 100 | 100
[O-][N+]1(Cc2ccc(Oc3ncccn3)cc2)CCC(=C(c2ccc(Cl)cc2)c2ccc(Cl)cc2)CC1 (stereo not drawn) [Compound 844] | 100 | 100

Compound | Percent Mortality [%] | Percent Growth Inhibition [%]
[O-][N+]1(Cc2ccc(Oc3ncccn3)cc2)CCC(=C(c2ccc(C(F)(F)F)cc2)c2ccccc2Cl)CC1 (stereo not drawn) [Compound 845] | 83 | 100
[O-][N+]1(Cc2ccc(Oc3ncccn3)cc2)CCC(=C(c2ccc(C(F)(F)F)cc2)c2cccc(Cl)c2)CC1 (stereo not drawn) [Compound 846] | 100 | 100
[O-][N+]1(Cc2ccc(Oc3ncccn3)cc2)CCC(=C(c2ccc(Cl)cc2)c2ccc(C(F)(F)F)cc2)CC1 (stereo not drawn) [Compound 847] | 100 | 100
[O-][N+]1(Cc2ccc(Oc3ncccn3)cc2)CCC(=C(c2ccc(C(F)(F)F)cc2)c2cccc(F)c2)CC1 (stereo not drawn) [Compound 848] | 83 | 100
[O-][N+]1(Cc2ccc(Oc3ncccn3)cc2)CCC(=C(c2ccc(Cl)c(Cl)c2)c2ccc(Cl)c(Cl)c2)CC1 (stereo not drawn) [Compound 849] | 100 | 100
[O-][N+]1(Cc2ccc(Oc3ncccn3)cc2)CCC(=C(c2ccc(C(F)(F)F)cc2)c2ccc(Cl)c(Cl)c2)CC1 (stereo not drawn) [Compound 850] | 100 | 100
[O-][N+]1(Cc2ccc(Oc3ncccn3)cc2)CCC(=C(c2ccc(C(F)(F)F)cc2)c2cc(Cl)cc(Cl)c2)CC1 (stereo not drawn) [Compound 851] | 50 | 100
[O-][N+]1(Cc2ccc(Oc3ncccn3)cc2)CCC(=C(c2ccc(C(F)(F)F)cc2)c2ccc(Cl)c(F)c2)CC1 (stereo not drawn) [Compound 852] | 100 | 100
[O-][N+]1(Cc2ccc(Oc3ncccn3)cc2)CCC(=C(c2ccc(C(F)(F)F)cc2)c2cccc(C(F)(F)F)c2)CC1 (stereo not drawn) [Compound 853] | 100 | 100
[O-][N+]1(Cc2ccc(Oc3ncccn3)cc2)CCC(=C(c2ccc(C(F)(F)F)cc2)c2ccc(C(F)(F)F)cc2)CC1 (stereo not drawn) [Compound 854] | 100 | 100
[O-][N+]1(Cc2ccc(Oc3ccc(Cl)nn3)cc2)CCC(=C(c2ccc(C(F)(F)F)cc2)c2ccc(C(F)(F)F)cc2)CC1 (stereo not drawn) [Compound 855] | 100 | 100
[O-][N+]1(Cc2ccc(Oc3ncccn3)cc2)CCC(=C(c2ccc(C(F)(F)F)cc2)c2cc(Cl)cc(Cl)c2)CC1 (stereo not drawn) [Compound 856] | 50 | 100
[O-][N+]1(Cc2ccc(Oc3ncccn3)cc2)CCC(=C(c2ccc(C(F)(F)F)cc2)c2ccccc2Cl)CC1 (stereo not drawn) [Compound 857] | 83 | 100
FC(F)(F)c1ccc(C(=C2CCN(Cc3ccc(Oc4ccccc4)nc3)CC2)c2ccc(C(F)(F)F)cc2)cc1 [Compound 858] | 17 | 99
FC(F)(F)c1ccc(C(=C2CCN(Cc3ccc(Nc4ncccn4)nc3)CC2)c2ccc(C(F)(F)F)cc2)cc1 [Compound 859] | 0 | 46
CCOS(=O)(=O)[O-].CCO[N+]1(Cc2ccc(Oc3ccccn3)cc2)CCC(C(OC(=O)Nc2ccc(Cl)cc2)c2ccc(C(F)(F)F)cc2)CC1 (stereo not drawn) [Compound 860, N-(4-chlorophenyl)({1-ethoxy-1-[(4-(2-pyridyloxy)phenyl)methyl](4-piperidyl)}[4-(trifluoromethyl)phenyl]methoxy)carboxamide, ethyl sulfate salt] | 100 | 100
